# From patent US11505530B2, “1,8-naphthalimide derivative, preparation method therefor and use thereof” (SOOCHOW UNIVERSITY, priority 2018, dated 2022)
# Key:
# Format in all cases: physicochemical
# [1] = Effect of coexisting metal ions on BNGT as pH colorimetric switch; conditions: pH 5.8 and pH 6.0, metal ions 100 μM
# Procedure: In order to understand the interference of common metal ions on BNGT as a pH colorimetric switch, Fe^2+, Fe^3+, Cu^2+, K^+, Na^+, Mg^2+, Ag^+, Zn^2+, Cr^3+, Cd^2+, […], Ni^2+, Mn^2+, Pb^2+, Hg^2+ and Ca^2+ were added to the acetonitrile/water (in a volume ratio of 1/99 (a), 1/1 (b) and 8/2 (c)) solution, and the UV-Vis absorption spectra of the solution before and after the addition of these metal ions were obtained. […]
# Second, the effect of coexisting metal ions on the absorbance of the solution at 527 nm, 535 nm and 537 nm was investigated, with the results as shown in FIG. 11; solvent: acetonitrile/water, in a volume ratio of 1/99 (a), 1/1 (b) and 8/2 (c); concentration: BNGT 10 μM, metal ions 100 μM; 1: none, 2: Ca^2+, 3: Mg^2+, 4: Ag^+, 5: Pb^2+, 6: Cu^2+, 7: Mn^2+, 8: Co^2+, 9: Cd^2+, 10: Ni^2+, 11: K^+, 12: Na^+, 13: Fe^3+, 14: Zn^2+, 15: Cr^2+, 16: Hg^2+, 17: Fe^2+; absorption wavelength: 527 nm, 535 nm and 537 nm. […] Therefore, the aforementioned metal ions had little effect on the response of BNGT to pH in terms of enhanced absorbance.
# [2] = Speed of response of BNGT to pH; conditions: three solvents
# Text: To investigate the speed of response of BNGT to pH, adding 1 M NaOH aqueous solution to an acetonitrile/water (in a volume ratio of 1/99 (a), 1/1 (b) and 8/2 (c)) solution of BNGT at pH 5.8 to adjust the pH to 6.0; measuring the UV-Vis absorption spectrum of the solution before and after the adjustment, and plotting the maximum absorption wavelength and color over time, with the results as shown in FIG. 8; solvent: acetonitrile/water, in a volume ratio of 1/99 (a), 1/1 (b) and 8/2 (c); concentration: BNGT 10 μM.
# The absorbance was plotted against time and the results were shown in FIG. 9; solvent: acetonitrile/water, in a volume ratio of 1/99 (a), 1/1 (b) and 8/2 (c); concentration: BNGT 10 μM; absorption wavelength: 527 nm, 535 nm and 537 nm.
# [3] = UV-Vis absorption response of BNGT to pH; conditions: for maximum absorption wavelength: BNGT 10 μM
# Procedure: Preparing a 1.0×10^−3 mol/L BNGT stock solution with acetonitrile as a solvent, and transferring 100 μL of the BNGT stock solution respectively into three series of 10 mL volumetric flasks; adding 7 mL of deionized water to the first series of volumetric flasks, adding 2 mL of deionized water and 5 ml of acetonitrile to the second series of volumetric flasks, and adding 1 mL of deionized water and 8 ml of acetonitrile to the third series of volumetric flasks; then titrating to the desired pH value respectively with 0.1 M NaOH and 0.1 M HCl aqueous solutions, and finally making up to volume with deionized water to obtain an acetonitrile/water solution of BNGT with different pHs in three solvent systems, the volume ratios of acetonitrile/water in the three solvent systems being 1/99, 1/1 and 8/2, respectively.
# Therefore, in the three solvents (acetonitrile/water in a volume ratio of 1/99, 1/1 and 8/2), BNGT could be used as a pH colorimetric switch by means of three ways (a maximum absorption wavelength, absorbance and color).
# [4] = Reversibility of BNGT as pH colorimetric switch; conditions: pH alternating between 5.8 and 6.0
# Text: 1 M HCl and 1 M NaOH were used to make the pH value of the acetonitrile/water (in a volume ratio of 1/99 (a), 1/1 (b) and 8/2 (c)) solution of BNGT alternately change between 5.8 and 6.0, so as to determine the UV-Vis absorption spectrum of the solution.
# First, the reversibility of response of the maximum absorption wavelength and color of the solution to pH was investigated, with the results as shown in FIG. 12; solvent: acetonitrile/water, in a volume ratio of 1/99 (a), 1/1 (b) and 8/2 (c); concentration: BNGT 10 μM.
# Second, the reversibility of response of the absorbance of BNGT to pH at 527 nm, 535 nm and 537 nm was investigated, with the results as shown in FIG. 13; solvent: acetonitrile/water, in a volume ratio of 1/99 (a), 1/1 (b) and 8/2 (c); concentration: BNGT 10 μM; the maximum absorption wavelengths corresponding to the absorbance of the three solutions were 527 nm, 535 nm and 537 nm, respectively. It can be seen from the figure that the pH value alternated between 5.8 and 6.0, and the absorbance of the acetonitrile/water (in a volume ratio of 1/99 (a), 1/1 (b) and 8/2 (c)) solution of BNGT also changed circularly from small to large at 527 nm, 535 nm and 537 nm, respectively.
# [5] = pH 5.8 to 6.0, acetonitrile/water 1/1
# [6] = pH 5.8 to 6.0, acetonitrile/water 1/99
# [7] = pH 5.8 to 6.0, acetonitrile/water 8/2
compound,measurement,setting,value
CCCCN1C(=O)c2cccc3c(NN=CC=NC(CO)(CO)CO)ccc(c23)C1=O [BNGT],effect of coexisting metal ions on absorbance,"[1]; 527 nm, 535 nm and 537 nm",did not change much
same,effect of coexisting metal ions on maximum absorption wavelength and color,"[1]; BNGT 10 μM, three solvents",almost unchanged
same,stability of absorbance for the next 30 min,[2]; after pH adjusted to 6.0,remained basically stable
same,time for absorbance to reach the maximum,"[2]; pH 5.8 adjusted to 6.0 with NaOH, 527 nm, 535 nm and 537 nm",about 2 min
same,color change,[2]; pH changed from 5.8 to 6.0,colorless to red
same,maximum absorption wavelength,"[3]; pH 1.9 to 5.8, acetonitrile/water 1/1",around 420 nm
same,maximum absorption wavelength,"[3]; pH 1.9 to 5.8, acetonitrile/water 1/99",around 432 nm
same,maximum absorption wavelength,"[3]; pH 1.9 to 5.8, acetonitrile/water 8/2",around 422 nm
same,increase of absorbance at 535 nm,[3]; [5],about 20 times
same,red shift of maximum absorption wavelength,[3]; [5],115 nm
same,increase of absorbance at 527 nm,[3]; [6],about 6 times
same,red shift of maximum absorption wavelength,[3]; [6],95 nm
same,increase of absorbance at 537 nm,[3]; [7],about 28 times
same,red shift of maximum absorption wavelength,[3]; [7],115 nm
same,maximum absorption wavelength,"[3]; pH 6.0 to 12.0, acetonitrile/water 1/1",around 535 nm
same,maximum absorption wavelength,"[3]; pH 6.0 to 12.0, acetonitrile/water 1/99",about 527 nm
same,maximum absorption wavelength,"[3]; pH 6.0 to 12.0, acetonitrile/water 8/2",around 537 nm
same,reversibility of response of absorbance to pH,"[4]; 527 nm, 535 nm and 537 nm",very good reversibility
same,reversibility of response of maximum absorption wavelength and color to pH,[4]; three solvents,good reversibility
